Test results reported in the NIST ThermoML archive (doi:10.1016/j.fluid.2013.07.044).

Assay: Boiling temperature at pressure P
Conditions: Liquid, Ebulliometric method (Recirculating still)

CCCCCCCC [octane]
Conditions | Boiling temperature at pressure P [°C]
22.95 kPa | 79.68
29.98 kPa | 87.07
37.87 kPa | 93.74
44.82 kPa | 98.74
52.81 kPa | 103.78
59.85 kPa | 107.72
66.66 kPa | 111.21
75.23 kPa | 115.23
82.72 kPa | 118.44
89.51 kPa | 121.17
99.01 kPa | 124.72

CCCCCCC [heptane]
Conditions | Boiling temperature at pressure P [°C]
10.23 kPa | 35.76
16.91 kPa | 47.28
23.5 kPa | 55.43
35.39 kPa | 66.27
56.16 kPa | 79.51
67.57 kPa | 85.09
74.44 kPa | 88.22
79.37 kPa | 90.30
86.51 kPa | 93.16
100.11 kPa | 98.06

C1CCCCC1 [cyclohexane]
Conditions | Boiling temperature at pressure P [°C]
24.08 kPa | 39.63
30.7 kPa | 45.81
38.72 kPa | 51.92
46.85 kPa | 57.17
55.2 kPa | 61.86
61.52 kPa | 65.06
69.06 kPa | 68.52
77.87 kPa | 72.22
85.44 kPa | 75.13
91.68 kPa | 77.38
101.32 kPa | 80.63

CCO [ethanol]
Conditions | Boiling temperature at pressure P [°C]
20.14 kPa | 42.46
30.24 kPa | 50.67
40.31 kPa | 56.77
50.39 kPa | 61.69
70.33 kPa | 69.34
80.63 kPa | 72.62
85.67 kPa | 74.11
98.45 kPa | 77.53
100.79 kPa | 78.13
110.86 kPa | 80.53
120.93 kPa | 82.77
131.02 kPa | 84.84
141.1 kPa | 86.79
151.1 kPa | 88.62
160 kPa | 90.41
170 kPa | 92.09
180 kPa | 93.62
190 kPa | 95.16
200 kPa | 96.60

CCCO [propan-1-ol]
Conditions | Boiling temperature at pressure P [°C]
69.79 kPa | 87.71
74.92 kPa | 89.5
79.6 kPa | 90.96
84.8 kPa | 92.6
89.78 kPa | 93.99
94.77 kPa | 95.37
99.7 kPa | 96.67
105.14 kPa | 98.2
110.1 kPa | 99.27
113.19 kPa | 100.00
120.75 kPa | 101.73
130.1 kPa | 103.76
171 kPa | 111.42
199.9 kPa | 115.99
228.5 kPa | 120.00
229.9 kPa | 120.20
260 kPa | 123.98
290 kPa | 127.42
310 kPa | 129.56
330 kPa | 131.59
350 kPa | 133.54
380 kPa | 136.28
400 kPa | 138.03
420 kPa | 139.69
450 kPa | 142.08
480 kPa | 144.37
500 kPa | 145.81
520 kPa | 147.22
530 kPa | 147.91
550 kPa | 149.26
561.5 kPa | 150.01
